Reference: patent publication US5843925A, “Methods for inhibiting angiogenesis, proliferation of endothelial or tumor cells and tumor growth” (American Cyanamid Company, priority 1994, dated 1998)
Counter-ions that a name gives are not always drawn.

Experiments:
[1] = test system: Human Tumor cell lines; assay: Antiproliferative activity in panel of human tumor cell lines (PROTOCOL 1 and PROTOCOL 2); assay type: cell-based; conditions: Homo sapiens; average over the tumor cell lines of Table 3
Method: The antiproliferative activity of the compounds of Formula I in an Adult Bovine Aortic Endothelial (ABAE) cell line and in Human Tumor cells lines is evaluated in three similar assays that measure growth inhibition. The assays are identified as follows:
PROTOCOLS 1, 2, and 3 are described in greater detail hereinbelow. In general, according to PROTOCOLS 1 and 2, the target ABAE and/or Human Tumor cells are exposed to the compound of Formula I for 48 hours. PROTOCOL 3 exposes ABAE cells to the compounds for 4 days. A detailed description of the protocol is as follows:
The antiproliferative activity of the compounds of Formula I of the present invention is evaluated in a panel comprised of human tumor cell lines and an adult bovine aortic endothelial cell line (ABAE). The human tumor cell lines are from
All cell lines are maintained in log phase in RPMI 1640 media, supplemented with 5% fetal calf serum, penicillin/streptomycin and 2 mM L-glutamine. Cultures are renewed after 20 passages with cells from a fresh stock of batch-frozen early passage cells. Cell lines are routinely checked for mycoplasma contamination (Genprobe). In a laminar flow hood, cells (1-5×10^4) are plated into 96-well microtiter plates in a volume of 0.1 ml/well with a bulk microtiter dispenser (Denley). […] At this concentration, dimethylsulfoxide has no effect on cell growth. Compounds are added using a Tomtec dispenser which simultaneously dispenses from one 96-well plate, containing the drug dilutions, to the plates containing the cells. After two days of continuous drug exposure, 50% cold trichloroacetic acid (TCA) is added to 10% final concentration to fix the cells, and after 60 minutes at 4° C., the TCA is aspirated and the plates are washed 5 times with deionized water using a microtiter plate washer. The number of cells on the plate are quantitated using a protein dye-binding assay (Monks et al., 1991). A 0.4% solution of the dye, sulforhodamine B, in glacial acetic acid is added to the plates, and the plates are washed 5 times with 1% glacial acetic acid using the automatic plate washed. The bound stain is solubilized with 0.1 ml of 10 mM Tris base. The optical densities are read from an automatic spectrophotometric plate reader (Dynatech) directly to a main frame computer (VAX 8600).
Positive controls, that include standard chemotherapeutic drugs (i.e., adriamycin, cisplatin, etc.), are included in every experiment.
Background optical density measurements (complete media-cells, and complete media+drug-cells) are automatically subtracted from the appropriate control and test wells. Mean values and standard errors are determined from duplicate wells. A measure is also made of the optical density at time when the drugs are added. The number of cells after treatment (P), as % of control, is calculated for every concentration of drug, as follows: [formula] wherein: T is optical density measurement for treated cells after 48 hours;
C is optical density measurement for untreated cells after 48 hours;
Co is optical density measurement for cells at the time of drug addition.
IC50 of growth inhibition is calculated from the sets of P values using the RS-1 data package (BBN Software).
Antiproliferative Activity in Human Tumor Cell Lines
The antiproliferative activity of the compounds of Formula I is evaluated in the panel comprised of human tumor cell lines as listed in PROTOCOL 1. This assay is a slight modification of PROTOCOL 1. The modifications include:
1) each concentration for each compound is tested in a single well;
2) compounds are tested at 20, 4, 0.8, 0.16 microgram/ml and additionally in some experiments at 100 and 0.32 microgram/ml;
3) samples are pipetted into a 96-well plate for each of the cell lines by a Beckman Biomek 1000 SL robot;
4) after fixing with TCA each well is washed with 0.35 ml distilled water twice, not five times;
5) after staining with sulforhodamine B each well is washed 3 times, not five times; […]

[2] = test system: Adult Bovine Aortic Endothelial (ABAE) cell line; assay: Antiproliferative activity in Adult Bovine Aortic Endothelial (ABAE) cell line, PROTOCOL 1; assay type: cell-based; conditions: Bos taurus; ABAE cells, 48 hours exposure
Method: The antiproliferative activity of the compounds of Formula I in an Adult Bovine Aortic Endothelial (ABAE) cell line and in Human Tumor cells lines is evaluated in three similar assays that measure growth inhibition. The assays are identified as follows: PROTOCOLS 1, 2, and 3 are described in greater detail hereinbelow. In general, according to PROTOCOLS 1 and 2, the target ABAE and/or Human Tumor cells are exposed to the compound of Formula I for 48 hours. PROTOCOL 3 exposes ABAE cells to the compounds for 4 days. A detailed description of the protocol is as follows: The antiproliferative activity of the compounds of Formula I of the present invention is evaluated in a panel comprised of human tumor cell lines and an adult bovine aortic endothelial cell line (ABAE). The human tumor cell lines are from All cell lines are maintained in log phase in RPMI 1640 media, supplemented with 5% fetal calf serum, penicillin/streptomycin and 2 mM L-glutamine. Cultures are renewed after 20 passages with cells from a fresh stock of batch-frozen early passage cells. Cell lines are routinely checked for mycoplasma contamination (Genprobe). […] The number of cells on the plate are quantitated using a protein dye-binding assay (Monks et al., 1991). […] The optical densities are read from an automatic spectrophotometric plate reader (Dynatech) directly to a main frame computer (VAX 8600). […] Mean values and standard errors are determined from duplicate wells. […] The number of cells after treatment (P), as % of control, is calculated for every concentration of drug, as follows: [formula] wherein: T is optical density measurement for treated cells after 48 hours; C is optical density measurement for untreated cells after 48 hours; Co is optical density measurement for cells at the time of drug addition. IC50 of growth inhibition is calculated from the sets of P values using the RS-1 data package (BBN Software). Table 2 presents the results depicting the antiproliferative activity of the compounds of Formula I against an adult bovine aortic endothelial cell line (ABAE), as evaluated by PROTOCOL 1 and PROTOCOL 3. […]

Row | Compound | IC50 [1] [µg/mL] | IC50 [2] [µg/mL]
1 | CN(C)CC(=O)Nc1cc(N(C)C)c2c(c1O)C(=O)C1=C(O)[C@]3(O)C(=O)C(C(N)=O)=C(O)[C@@H](N(C)C)C3CC1C2 (stereo partly drawn) [Example 2, [4S-(4a,12aa-1-4,7-Bis(dimethylamino)-9-[[(dimethylamino)acetyl]amino]]-1,4,,4a,5,5a,6,11,12a-octahvdro-3,10,12,12a-tetrahydroxy-1,11-dioxo-2-napththacenecarboxamidedihydrochloride] | 5.8 | 6.6
2 | CCCCCCCNCC(=O)Nc1cc(N(C)C)c2c(c1O)C(=O)C1=C(O)[C@]3(O)C(=O)C(C(N)=O)=C(O)[C@@H](N(C)C)C3CC1C2 (stereo partly drawn) [Example 5, [4S-(4α,12aα)]-4,7-Bis(dimethylamino)-9-[[(heptylamino)acetyl]amino]-1,4,4a,5,5a,6,11,12a-octahydro-3,10,12,12a-tetrahydroxy-1,11-dioxo-2-naphthacenecarboxamide dihydrochloride] | 2.4 | 2.2
3 | CCCCCCNCC(=O)Nc1cc(N(C)C)c2c(c1O)C(=O)C1=C(O)[C@]3(O)C(=O)C(C(N)=O)=C(O)[C@@H](N(C)C)C3CC1C2 (stereo partly drawn) [Example 4, [4S-(4α,12aα)]-4,7-Bis(dimethylamino)-9-[(hexylamino)acetyl]amino]-1,4,4a,5,5a,6,11,12a-octahydro-3,10,12,12a-tetrahydroxy-1,11-dioxo-2-naphthacenecarboxamide dihydrochloride] | 2.3 | 2.4
